According to article PMC9607159, “High-Resolution Bioassay Profiling with Complemented Sensitivity and Resolution for Pancreatic Lipase Inhibitor Screening” (Molecules, 2022):
Like-named read-outs stand apart in the source and are kept apart here.

Molecular target: T1, pancreatic lipase (PL) (Sus scrofa, UniProt P00591)
T1 construct: gene PNLIP
T1 sequence (P00591 1-450): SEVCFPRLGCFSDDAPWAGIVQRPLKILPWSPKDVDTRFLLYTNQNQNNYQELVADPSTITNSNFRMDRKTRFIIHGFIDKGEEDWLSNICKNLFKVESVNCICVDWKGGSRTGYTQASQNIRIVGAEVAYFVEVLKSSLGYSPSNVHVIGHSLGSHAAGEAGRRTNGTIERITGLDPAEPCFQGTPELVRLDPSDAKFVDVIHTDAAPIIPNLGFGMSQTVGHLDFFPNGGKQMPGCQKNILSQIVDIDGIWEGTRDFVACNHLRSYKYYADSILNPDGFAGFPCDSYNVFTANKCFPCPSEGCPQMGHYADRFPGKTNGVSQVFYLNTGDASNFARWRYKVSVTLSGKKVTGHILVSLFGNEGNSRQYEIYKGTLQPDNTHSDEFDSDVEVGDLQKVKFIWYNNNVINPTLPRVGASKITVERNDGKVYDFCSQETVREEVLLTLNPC
Test: fluorogenic 4-MUO lipase assay dose-response; also nanofractionation bioassay profiling and ligand fishing with PL magnetic beads
Type: biochemical

Structure (SMILES)	IC50	IC50 (read-out: IC50)
O=c1cc(-c2ccc(O)c(O)c2)oc2cc(O)cc(O)c12 [luteolin]	30.6 µM	–
O=C(O[C@@H]1Cc2c(O)cc(O)cc2O[C@@H]1c1cc(O)c(O)c(O)c1)c1cc(O)c(O)c(O)c1 [(-)-Epigallocatechin gallate]	–	0.97 µM
